According to US11548868B2, “Heterocyclic compounds, compositions comprising heterocyclic compound, and methods of use thereof” (JS INNOPHARM (SHANGHAI) LTD, priority 2017, dated 2023):

Biological target: T1, TDO2 in A172 cancer cells (Homo sapiens, UniProt P48775)
T1 construct: endogenous in cells; host or cells: A172 cancer cells
Test: TDO2 Cellular Assay (kynurenine production in A172 cancer cells)
Assay type: cell-based
Details: L-Trp 1 mM, 24 hours incubation, kynurenine at 490 nm
Protocol: A172 cancer cells (3×10^4 per well) in 85 μL DMEM medium containing 10% FBS were seeded in a 96-well plate and incubated at 95% humidity and 5% CO2 at 37° C. for overnight. On the next day, L-Trp solution (10 μL, 1 mM final concentration) and serial dilutions of the test compounds and DMEM medium resulting in a total final volume of 100 μL each well. The test compounds were dissolved in DMSO and successively diluted with pH7.5 butter (with final DMSO concentration of 0.25%) resulting in final concentrations of the test compounds ranging from 0 to 25 μM (0, 2.5, 7.5, 25, 75, 250, 750, 2500, 7500, & 25000 nM). After 24 hours of incubation, 70 uL of the supernatant per well was transferred to a new 96 well plate. 8 μL of trichloroacetic acid (6.1 N) was mixed into each well and incubated at 50° C. for 30 min to hydrolyze N-formylkynurenine to kynurenine. The reaction mixture was then centrifuged for 10 min at 2500 RPM to remove sediments. 50 μL of the supernatant per well was transferred to another 96 well plate and mixed with 50 μL of 2% (w/v) p-dimethylaminobenzaldehyde in acetic acid. The yellow color derived from kynurenine was measured at 490 nm using a microplate reader. Percent inhibition of the test compounds was determined by measuring the decrease in kynurenine as compared to the control of DMSO vehicle, which was calculated by formula of (WC−WT)/WC, where WC is the mean absorbance of the control well minus blank well; WT is the mean absorbance of the test well minus the blank well. Data was analyzed by GraphPad Prism 5 and the IC50 values were obtained by non-linear regression.
The IC50 values of for Compounds disclosed are listed in Table 2, A′: ≤0.5 μM; B′: >0.5 μM and ≤1 μM; C′: >1.0 μM and ≤5 uM; and D′: >5 μM.

T1 sequence (P48775 whole entry): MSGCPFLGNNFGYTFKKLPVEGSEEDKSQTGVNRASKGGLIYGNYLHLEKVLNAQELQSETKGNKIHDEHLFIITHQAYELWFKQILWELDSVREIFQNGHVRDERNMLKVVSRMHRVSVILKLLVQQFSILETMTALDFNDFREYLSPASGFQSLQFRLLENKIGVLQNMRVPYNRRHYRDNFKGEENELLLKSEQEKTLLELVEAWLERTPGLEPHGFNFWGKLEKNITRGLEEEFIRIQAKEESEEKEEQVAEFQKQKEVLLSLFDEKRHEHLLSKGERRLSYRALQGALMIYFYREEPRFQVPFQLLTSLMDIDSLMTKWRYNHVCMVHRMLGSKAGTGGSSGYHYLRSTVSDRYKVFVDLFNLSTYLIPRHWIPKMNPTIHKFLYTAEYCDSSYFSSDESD

IC50 [nM]	Structure (SMILES)
≤ 500	CC(C)(C)OC(=O)N1C[C@@H]2C[C@@](O)(c3cc(Cl)cc4[nH]ncc34)C[C@@H]2C1 [Example 54, (3aR,5r,6aS)-tert-butyl 5-(6-chloro-1H-indazol-4-yl)-5-hydroxyhexahydrocyclopenta[c]pyrrole-2(1H)-carboxylate]
≤ 500	O=C(C1CCCC1)N1C[C@@H]2C[C@@](O)(c3cc(Cl)cc4[nH]ncc34)C[C@@H]2C1 [Example 59, ((3aR,5r,6aS)-5-(6-chloro-1H-indazol-4-yl)-5-hydroxyhexahydrocyclopenta[c]pyrrol-2(1H)-yl)(cyclopentyl)methanone]
≤ 500	O=C(C1CCC1)N1C[C@@H]2C[C@@](O)(c3cc(Cl)cc4[nH]ncc34)C[C@@H]2C1 [Example 60, ((3aR,5r,6aS)-5-(6-chloro-1H-indazol-4-yl)-5-hydroxyhexahydrocyclopenta[c]pyrrol-2(1H)-yl)(cyclobutyl)methanone]
≤ 500	CC(C)OC(=O)N1C[C@@H]2C[C@@](O)(c3cc(Cl)cc4[nH]ncc34)C[C@@H]2C1 [Example 61, (3aR,5r,6aS)-isopropyl 5-(6-chloro-1H-indazol-4-yl)-5-hydroxyhexahydrocyclopenta[c]pyrrole-2(1H)-carboxylate]
≤ 500	O=C(C1CCCCC1)N1C[C@@H]2C[C@@](O)(c3cc(Cl)cc4[nH]ncc34)C[C@@H]2C1 [Example 62, ((3aR,5r,6aS)-5-(6-chloro-1H-indazol-4-yl)-5-hydroxyhexahydrocyclopenta[c]pyrrol-2(1H)-yl)(cyclohexyl)methanone]
≤ 500	CC(C)C(=O)N1C[C@@H]2C[C@@](O)(c3cc(Cl)cc4[nH]ncc34)C[C@@H]2C1 [Example 65, 1-((3aR,5r,6aS)-5-(6-chloro-1H-indazol-4-yl)-5-hydroxyhexahydrocyclopenta[c]pyrrol-2(1H)-yl)-2-methylpropan-1-one]
≤ 500	O=C([C@H]1CC[C@H](O)CC1)N1C[C@@H]2C[C@@](O)(c3cc(Cl)cc4[nH]ncc34)C[C@@H]2C1 [Example 66, ((3aR,5R,6aS)-5-(6-chloro-1H-indazol-4-yl)-5-hydroxyhexahydrocyclopenta[c]pyrrol-2(1H)-yl)((1r,4R)-4-hydroxycyclohexyl)methanone]
≤ 500	COC(=O)N1C[C@@H]2C[C@@](O)(c3cc(Cl)cc4[nH]ncc34)C[C@@H]2C1 [Example 67, (3aR,5r,6aS)-methyl 5-(6-chloro-1H-indazol-4-yl)-5-hydroxyhexahydrocyclopenta[c]pyrrole-2(1H)-carboxylate]
≤ 500	O=C(C1CCOC1)N1C[C@@H]2C[C@@](O)(c3cc(Cl)cc4[nH]ncc34)C[C@@H]2C1 (stereo partly drawn) [Example 68, ((3aR,5r,6aS)-5-(6-chloro-1H-indazol-4-yl)-5-hydroxyhexahydrocyclopenta[c]pyrrol-2(1H)-yl)(tetrahydrofuran-3-yl)methanone]
≤ 500	O=C(CC1CC1)N1C[C@@H]2C[C@@](O)(c3cc(Cl)cc4[nH]ncc34)C[C@@H]2C1 [Example 69, 1-((3aR,5r,6aS)-5-(6-chloro-1H-indazol-4-yl)-5-hydroxyhexahydrocyclopenta[c]pyrrol-2(1H)-yl)-2-cyclopropylethanone]
≤ 500	CCC(=O)N1C[C@@H]2C[C@@](O)(c3cc(Cl)cc4[nH]ncc34)C[C@@H]2C1 [Example 70, 1-((3aR,5r,6aS)-5-(6-chloro-1H-indazol-4-yl)-5-hydroxyhexahydrocyclopenta[c]pyrrol-2(1H)-yl)propan-1-one]
≤ 500	CCS(=O)(=O)N[C@H]1[C@@H]2C[C@@](O)(c3cc(Cl)cc4[nH]ncc34)C[C@@H]21 [Example 71, N-((1R,3r,5S,6r)-3-(6-chloro-1H-indazol-4-yl)-3-hydroxybicyclo[3.1.0]hexan-6-yl)ethanesulfonamide]
≤ 500	O=C(N[C@H]1[C@@H]2C[C@@](O)(c3cc(Cl)cc4[nH]ncc34)C[C@@H]21)C1CCOC1 (stereo partly drawn) [Example 72, N-((1R,3r,5S,6r)-3-(6-chloro-1H-indazol-4-yl)-3-hydroxybicyclo[3.1.0]hexan-6-yl)tetrahydrofuran-3-carboxamide]
≤ 500	O=S(=O)(N[C@H]1[C@@H]2C[C@@](O)(c3cc(Cl)cc4[nH]ncc34)C[C@@H]21)C1CC1 [Example 73, N-((1R,3r,5S,6r)-3-(6-chloro-1H-indazol-4-yl)-3-hydroxybicyclo[3.1.0]hexan-6-yl)cyclopropanesulfonamide]
≤ 500	O=S(=O)(N[C@H]1[C@@H]2C[C@@](O)(c3cc(Cl)cc4[nH]ncc34)C[C@@H]21)C1CCCC1 [Example 74, N-((1R,3r,5S,6r)-3-(6-chloro-1H-indazol-4-yl)-3-hydroxybicyclo[3.1.0]hexan-6-yl)cyclopentanesulfonamide]
≤ 500	O=C(N[C@H]1[C@@H]2C[C@@](O)(c3cc(Cl)cc4[nH]ncc34)C[C@@H]21)C1CCCO1 (stereo partly drawn) [Example 75, N-((1R,3r,5S,6r)-3-(6-chloro-1H-indazol-4-yl)-3-hydroxybicyclo[3.1.0]hexan-6-yl)tetrahydrofuran-2-carboxamide]
≤ 500	O=C(N[C@H]1[C@@H]2C[C@@](O)(c3cc(Cl)cc4[nH]ncc34)C[C@@H]21)C1CC1 [Example 76, N-((1R,3r,5S,6r)-3-(6-chloro-1H-indazol-4-yl)-3-hydroxybicyclo[3.1.0]hexan-6-yl)cyclopropanecarboxamide]
≤ 500	CC(C)S(=O)(=O)N[C@H]1[C@@H]2C[C@@](O)(c3cc(Cl)cc4[nH]ncc34)C[C@@H]21 [Example 77, N-((1R,3r,5S,6r)-3-(6-chloro-1H-indazol-4-yl)-3-hydroxybicyclo[3.1.0]hexan-6-yl)propane-2-sulfonamide]
≤ 500	O=S(=O)(N[C@H]1[C@@H]2C[C@@](O)(c3cc(Cl)cc4[nH]ncc34)C[C@@H]21)C1CCCCC1 [Example 78, N-((1R,3r,5S,6r)-3-(6-chloro-1H-indazol-4-yl)-3-hydroxybicyclo[3.1.0]hexan-6-yl)cyclohexanesulfonamide]
≤ 500	O=C(N[C@H]1[C@@H]2C[C@@](O)(c3cc(Cl)cc4[nH]ncc34)C[C@@H]21)C1CCCC1 [Example 79, N-((1R,3r,5S,6r)-3-(6-chloro-1H-indazol-4-yl)-3-hydroxybicyclo[3.1.0]hexan-6-yl)cyclopentanecarboxamide]
≤ 500	COC(=O)N[C@H]1[C@@H]2C[C@@](O)(c3cc(Cl)cc4[nH]ncc34)C[C@@H]21 [Example 80, methyl ((1R,3r,5S,6r)-3-(6-chloro-1H-indazol-4-yl)-3-hydroxybicyclo[3.1.0]hexan-6-yl)carbamate]
≤ 500	CCOC(=O)N[C@H]1[C@@H]2C[C@@](O)(c3cc(Cl)cc4[nH]ncc34)C[C@@H]21 [Example 81, ethyl ((1R,3r,5S,6r)-3-(6-chloro-1H-indazol-4-yl)-3-hydroxybicyclo[3.1.0]hexan-6-yl)carbamate]
≤ 500	CCC(=O)N[C@H]1[C@@H]2C[C@@](O)(c3cc(Cl)cc4[nH]ncc34)C[C@@H]21 [Example 82, N-((1R,3r,5S,6r)-3-(6-chloro-1H-indazol-4-yl)-3-hydroxybicyclo[3.1.0]hexan-6-yl)propionamide]
≤ 500	O=C(N[C@H]1[C@@H]2C[C@@](O)(c3cc(Cl)cc4[nH]ncc34)C[C@@H]21)C1CCC1 [Example 84, N-((1R,3r,5S,6r)-3-(6-chloro-1H-indazol-4-yl)-3-hydroxybicyclo[3.1.0]hexan-6-yl)cyclobutanecarboxamide]
≤ 500	O=C(N[C@H]1[C@@H]2C[C@@](O)(c3cc(Cl)cc4[nH]ncc34)C[C@@H]21)C1CCCCC1 [Example 85, N-((1R,3r,5S,6r)-3-(6-chloro-1H-indazol-4-yl)-3-hydroxybicyclo[3.1.0]hexan-6-yl)cyclohexanecarboxamide]
≤ 500	CC(C)OC(=O)N[C@H]1[C@@H]2C[C@@](O)(c3cc(Cl)cc4[nH]ncc34)C[C@@H]21 [Example 86, isopropyl ((1R,3r,5S,6r)-3-(6-chloro-1H-indazol-4-yl)-3-hydroxybicyclo[3.1.0]hexan-6-yl)carbamate]
≤ 500	O=C(C1CCOCC1)N1C[C@@H]2C[C@@](O)(c3cc(Cl)cc4[nH]ncc34)C[C@@H]2C1 [Example 88, ((3aR,5r,6aS)-5-(6-chloro-1H-indazol-4-yl)-5-hydroxyhexahydrocyclopenta[c]pyrrol-2(1H)-yl)(tetrahydro-2H-pyran-4-yl)methanone]
≤ 500	CC(C)(C)C(=O)N[C@H]1[C@@H]2C[C@@](O)(c3cc(Cl)cc4[nH]ncc34)C[C@@H]21 [Example 90, N-((1R,3r,5S,6r)-3-(6-chloro-1H-indazol-4-yl)-3-hydroxybicyclo[3.1.0]hexan-6-yl)pivalamide]
